Measured values: PMC7878868, “Mechanisms of feedback inhibition and sequential firing of active sites in plant aspartate transcarbamoylase” (Nature Communications, 2021)
Residue numbers refer to the chain shown, from its start. pKd: −log10 of the molar value. Several values for one entry are separate records, joined by “and”; a condition that tells them apart may be missing. Identical values can stand only once. Like-named read-outs stand apart in the source and are kept apart here.

Columns and labels:
[1] = target: T1, atATC-F161A (Arabidopsis thaliana, UniProt P49077, F161A); experiment: Colorimetric ATC activity assay, atATC F161A; assay type: biochemical; settings: for Activity F161A: 10 mM Asp
T1 construct: 2.6 kDa fusion tag (modified pET28a); made in house; host or cells: E. coli BLR(DE3)-pLysS
T1 sequence (P49077 82-390 F161A): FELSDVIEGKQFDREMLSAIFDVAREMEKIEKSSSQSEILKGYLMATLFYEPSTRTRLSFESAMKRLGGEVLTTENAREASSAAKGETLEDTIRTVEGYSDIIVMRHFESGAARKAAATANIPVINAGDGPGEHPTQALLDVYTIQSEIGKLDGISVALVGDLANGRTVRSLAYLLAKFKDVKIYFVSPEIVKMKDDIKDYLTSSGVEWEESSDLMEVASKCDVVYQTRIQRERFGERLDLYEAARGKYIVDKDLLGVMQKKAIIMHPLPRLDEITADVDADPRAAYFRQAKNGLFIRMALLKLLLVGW
Protocol: (§1) Activity was assayed by a colorimetric method[64] adapted to a 96-well plate format. […] Reagent B is light sensitive and was stored at 4 °C in the dark. The color reagents were gently mixed and stored at 4 °C in the dark until added to the sample. Reaction tubes were closed, boiled at 95 °C for 15 min, and kept in the dark for 30 min before measuring the absorbance at 450 nm in a Tecan infinite m200 microplate reader (Tecan). […] Data analysis was done with GraphPad. […] Protein concentration in the assay was 0.3 µM (0.01 mg ml^−1) both for WT and F161A.

[2] = target: T2, atATC WT (Arabidopsis thaliana, UniProt P49077); experiment: Colorimetric ATC activity assay, atATC WT; assay type: biochemical; settings: for Activity WT: 10 mM Asp
T2 construct: 2.6 kDa fusion tag (modified pET28a); made in house; host or cells: E. coli BLR(DE3)-pLysS
T2 sequence (P49077 82-390): T1 sequence (P49077 82-390 F161A) with A80F
Protocol: as §1

[3] = target: T3, atATC WT:PALA (Arabidopsis thaliana, UniProt P49077); experiment: ITC, atATC WT prebound to PALA (WT:PALA); assay type: binding; settings: for N, number of binding sites per protein trimer according to the ligand binding model / -TΔS Site 2 / ΔG Site 2 / ΔH Site 2 / -TΔS Site 3 / ΔG Site 3 / ΔH Site 3: ITC, protein prebound to PALA; for pKd: read-out: KD Site 2
T3 construct: 2.6 kDa fusion tag (modified pET28a); made in house; host or cells: E. coli BLR(DE3)-pLysS
T3 sequence (P49077 82-390): T1 sequence (P49077 82-390 F161A) with A80F
Protocol: (§2) Experiments were performed in an Auto-iTC200 calorimeter (MicroCal, Malvern-Panalytical) at 25 °C with a 0.2 ml reaction cell and 30–40 µM protein solution (in protomer units) in the cell. […] All solutions were in GF buffer and degassed and mixed in the cell by stirring at 750 rpm. Data analysis was performed with Origin 7 (OriginLab) using a general three-site cooperative and a non-cooperative binding model, restricted to one or two ligand binding sites when convenient[24],[62],[63]. Non-linear least-squares regression analysis was employed to estimate dissociation constants for the interaction of the different ligands with ATC.

[4] = target: T1, atATC-F161A; experiment: biochemical; assay type: binding
Protocol: as §2

[5] = target: T4, atATC (Arabidopsis ATC aa 82–390) WT (Arabidopsis thaliana, UniProt P49077); experiment: Isothermal titration calorimetry (ITC), atATC WT; assay type: binding; settings: ITC; for pKd: 25 °C
T4 construct: 2.6 kDa fusion tag (modified pET28a); made in house; host or cells: E. coli BLR(DE3)-pLysS
T4 sequence (P49077 82-390): T1 sequence (P49077 82-390 F161A) with A80F
Protocol: as §2

N[C@@H](CC(=O)O)C(=O)O [Asp, aspartate]
K0.5 Asp ([1]; F161A, Asp variable, 5 mM CP): 3.20 ± 1.03 mM | K0.5 Asp ([2]; WT, Asp variable, 5 mM CP): 0.94 mM and 0.94 ± 0.10 mM

NC(=O)OP(=O)(O)O [CP, carbamoyl phosphate]
Hill-coefficient h of CP initial-rate plot ([2]; WT, CP as variable ligand, in the presence of UMP): 2.2 | N, number of binding sites per protein trimer according to the ligand binding model [3]: 2 | -TΔS Site 2 [3]: 0.4 kcal/mol | ΔG Site 2 [3]: -5.3 kcal/mol | ΔH Site 2 [3]: -5.7 kcal/mol | -TΔS Site 3 [3]: 0.4 kcal/mol | ΔG Site 3 [3]: -5.3 kcal/mol | ΔH Site 3 [3]: -5.7 kcal/mol | pKd [3]: 3.85 | N, number of binding sites per protein trimer according to the ligand binding model ([4]; ITC, F161A): 3 | fold higher affinity of F161A than WT ([4]; ITC, F161A versus WT): ~ 100 fold | -TΔS Site 1 ([4]; ITC, F161A, site 1): -2.4 kcal/mol | ΔG Site 1 ([4]; ITC, F161A, site 1): -8.4 kcal/mol | ΔH Site 1 ([4]; ITC, F161A, site 1): -6.0 kcal/mol | -TΔS Site 2 ([4]; ITC, F161A, site 2): -2.4 kcal/mol | ΔG Site 2 ([4]; ITC, F161A, site 2): -8.4 kcal/mol | ΔH Site 2 ([4]; ITC, F161A, site 2): -6.0 kcal/mol | -TΔS Site 3 ([4]; ITC, F161A, site 3): -2.4 kcal/mol | ΔG Site 3 ([4]; ITC, F161A, site 3): -8.4 kcal/mol | ΔH Site 3 ([4]; ITC, F161A, site 3): -6.0 kcal/mol | pKd ([4]; KD Site 1, ITC, F161A, site 1): 6.14 | pKd ([4]; KD Site 2, ITC, F161A, site 2): 6.14 | pKd ([4]; KD Site 3, ITC, F161A, site 3): 6.14 | pKd ([4]; KD, ITC, F161A): 6.15 | N, number of binding sites per protein trimer according to the ligand binding model [5]: 3 | pKd ([5]; site 1, read-out: KD Site 1): 4.10 | pKd ([5]; site 2, read-out: KD Site 2): 4.10 | pKd ([5]; site 3, read-out: KD Site 3): 4.10 | -TΔS Site 1 [5]: -2.6 kcal/mol | ΔG Site 1 [5]: -5.6 kcal/mol | ΔH Site 1 [5]: -3.0 kcal/mol | -TΔS Site 2 [5]: -2.6 kcal/mol | ΔG Site 2 [5]: -5.6 kcal/mol | ΔH Site 2 [5]: -3.0 kcal/mol | -TΔS Site 3 ([5]; site 3): -2.6 kcal/mol | ΔG Site 3 ([5]; site 3): -5.6 kcal/mol

O=c1ccn([C@@H]2O[C@H](COP(=O)(O)O)[C@@H](O)[C@H]2O)c(=O)[nH]1 [UMP, uridine 5-monophosphate]
Activity F161A ([1]; 0.2 mM UMP, [CP] 0.31 mM): 31.06 nmol / min μg and 26.77 nmol / min μg and 21.39 nmol / min μg | Activity F161A ([1]; 0.2 mM UMP, [CP] 0.63 mM): 62.38 nmol / min μg and 46.00 nmol / min μg and 48.44 nmol / min μg | Activity F161A ([1]; 0.2 mM UMP, [CP] 1.25 mM): 61.36 nmol / min μg and 58.95 nmol / min μg and 63.80 nmol / min μg | Activity F161A ([1]; 0.2 mM UMP, [CP] 2.50 mM): 64.72 nmol / min μg and 56.89 nmol / min μg and 56.14 nmol / min μg | Activity F161A ([1]; 0.4 mM UMP, [CP] 0.31 mM): 27.07 nmol / min μg and 21.22 nmol / min μg and 30.75 nmol / min μg | Activity F161A ([1]; 0.4 mM UMP, [CP] 0.63 mM): 50.59 nmol / min μg and 53.67 nmol / min μg and 49.88 nmol / min μg | Activity F161A ([1]; 0.4 mM UMP, [CP] 1.25 mM): 68.18 nmol / min μg and 58.61 nmol / min μg and 62.41 nmol / min μg | Activity F161A ([1]; 0.4 mM UMP, [CP] 2.50 mM): 55.88 nmol / min μg and 59.00 nmol / min μg and 63.38 nmol / min μg | inhibition of enzyme activity by UMP ([1]; F161A): not inhibited | Activity WT ([2]; 0.1 mM UMP, [CP] 0.31 mM): 4.11 nmol / min μg and 7.63 nmol / min μg and 5.39 nmol / min μg | Activity WT ([2]; 0.1 mM UMP, [CP] 1.25 mM): 41.20 nmol / min μg and 48.03 nmol / min μg and 40.64 nmol / min μg | Activity WT ([2]; 0.1 mM UMP, [CP] 2.50 mM): 66.92 nmol / min μg and 70.05 nmol / min μg and 71.44 nmol / min μg | Activity WT ([2]; 0.1 mM UMP, [CP] 3.00 mM): 72.17 nmol / min μg and 74.13 nmol / min μg and 71.50 nmol / min μg | Activity WT ([2]; 0.1 mM UMP, [CP] 4.00 mM): 77.07 nmol / min μg and 76.02 nmol / min μg and 75.78 nmol / min μg | Activity WT ([2]; 0.1 mM UMP, [CP] 5.00 mM): 76.47 nmol / min μg and 78.06 nmol / min μg and 76.19 nmol / min μg | Activity WT ([2]; 0.4 mM UMP, [CP] 1.25 mM): 9.87 nmol / min μg and 11.15 nmol / min μg and 12.99 nmol / min μg | Activity WT ([2]; 0.4 mM UMP, [CP] 2.50 mM): 28.61 nmol / min μg and 31.67 nmol / min μg and 35.52 nmol / min μg | Activity WT ([2]; 0.4 mM UMP, [CP] 3.00 mM): 41.63 nmol / min μg and 37.33 nmol / min μg and 40.36 nmol / min μg | Activity WT ([2]; 0.4 mM UMP, [CP] 4.00 mM): 48.76 nmol / min μg and 50.91 nmol / min μg and 53.68 nmol / min μg | Activity WT ([2]; 0.4 mM UMP, [CP] 5.00 mM): 58.15 nmol / min μg and 59.40 nmol / min μg and 57.60 nmol / min μg | N, number of binding sites per protein trimer according to the ligand binding model [3]: 2 | -TΔS Site 2 [3]: -8.5 kcal/mol | ΔG Site 2 [3]: -8.1 kcal/mol | ΔH Site 2 [3]: 0.4 kcal/mol | -TΔS Site 3 [3]: -8.5 kcal/mol | ΔG Site 3 [3]: -8.1 kcal/mol | ΔH Site 3 [3]: 0.4 kcal/mol | pKd [3]: 5.92 | binding detected by ITC ([4]; F161A, 70 µM UMP at most, 30-40 µM protein): failed to detect the binding | N, number of binding sites per protein trimer according to the ligand binding model [5]: 3 | fold higher affinity for UMP than for CP [5]: ~400 fold | fold higher affinity for UMP than for the transition-state analog (PALA) [5]: 3 fold | pKd ([5]; site 1, read-out: KD Site 1): 6.68 and 6.70 | pKd ([5]; site 2, read-out: KD Site 2): 5.64 | pKd ([5]; site 3, read-out: KD Site 3): 5.80 | fold reduction of the affinity of the other subunits after binding to the first site ([5]; negative cooperativity): 10 fold | -TΔS Site 1 [5]: -6.3 kcal/mol | ΔG Site 1 [5]: -9.1 kcal/mol | ΔH Site 1 [5]: -2.8 kcal/mol | -TΔS Site 2 [5]: -8.9 kcal/mol | ΔG Site 2 [5]: -7.7 kcal/mol | ΔH Site 2 [5]: 1.2 kcal/mol | -TΔS Site 3 ([5]; site 3): -7.4 kcal/mol | ΔG Site 3 ([5]; site 3): -7.9 kcal/mol | ΔH Site 3 ([5]; site 3): -0.5 kcal/mol
